Source: patent publication US7884135B2, “Modafinil-based treatment for premature ejaculation” (NeuroHealing Pharmaceuticals, Inc., priority 2006, dated 2011)

Legend:
[1] = cited from earlier work
[2] = system: ejaculation during sexual activity; assay: Delayed ejaculation with sublingually administered d-modafinil (Example 1, Subject 1); type: in vivo, human; details: 100 mg d-modafinil formulation sublingually
Protocol: The synthesized d-modafinil was compounded into a composition containing sugar, spearmint flavor, cinnamon flavor, gum arabic, gelatin, corn syrup, and dyes that could be administered sublingually. Formulations containing 100 mg of d-modafinil were prepared.
Subject 1 took the above-described formulation of d-modafinil sublingually at 9:00 pm in the course of testing a composition containing d-modafinil for a different effect unrelated to sexual activity.

mice = details: cited from earlier work
[3] = pharmacokinetic studies of modafinil in the human body (literature); type: in vivo; details: l-enantiomer versus d-enantiomer
Protocol: The optical enantiomers of modafinil have similar pharmacological actions in animals. […] Owing to the differences in half-life and rate of clearance of the individual enantiomers, the use of racemic modafinil results in differences in the circulating levels of the two enantiomers. […] After a single oral dose, racemic modafinil is readily absorbed, reaching maximum plasma concentrations at 2 hours to 4 hours after administration (see, e.g., Wong et al., J. Clin. Pharmacol., 39: 3040 (1999); Wong et al., J. Clin. Pharmacol., 39: 281-288 (1999); Robertson et al., Clin. Pharmacokinet., 42: 123-137 (2003); and Dinges et al., Curr. Medical Research and Opinions, 22: 159-169 (2006)).

[4] = system: ejaculation during sexual activity; assay: Delayed ejaculation with orally administered (tablet) racemic modafinil (Example 2, Subject 2); type: in vivo, human; details: 200 mg oral PROVIGIL tablet, hours after dosing
Protocol: Subject 2 took racemic modafinil (200 mg) in the form of an orally administrable tablet of PROVIGIL® (Cephalon) at 3:00 pm for the purpose of increasing alertness.

Compound: NC(=O)C[S@+]([O-])C(c1ccccc1)c1ccccc1 [d-modafinil, S-(+)-modafinil]
- amount in the circulation relative to l-modafinil ([1]; after use of racemic modafinil): three times less
- elimination rate relative to l-modafinil ([1]; human, d-modafinil versus l-modafinil): three times faster
- time to ejaculate during sexual activity, factor longer than usual ([2]; first administration): about two to three
- time to ejaculate during sexual intercourse, factor of delay ([2]; second administration a week later): about two to three
- pharmacological activity compared with the modafinil racemic compound (mice): same pharmacological activity

Compound: NC(=O)C[S@@+]([O-])C(c1ccccc1)c1ccccc1 [l-modafinil, R-(−)-modafinil, reference compound]
- half-life relative to the d-enantiomer [3]: approximately three-times longer
- pharmacological activity compared with the modafinil racemic compound (mice): same pharmacological activity

Compound: NC(=O)C[S+]([O-])C(c1ccccc1)c1ccccc1 (racemic) [modafinil, 2-[(diphenylmethyl)sulfinyl]acetamide]
- fraction of modafinil eliminated by the liver ([1]; humans, ingestion of PROVIGIL tablets, package insert): ≤ 90%
- delay in ejaculation during sexual activity [4]: experienced a delay in ejaculation
